Columns and labels:
Mäuse = assay: Toxicity of the zinc salts used as radiation protection agents (LD50); assay type: in vivo
Procedure: In diesem Beispiel wurde die Toxizität der als Strahlenschutzmittel eingesetzten Zinksalze getestet.
Der LD₅₀-Wert betrug für das Zinkaspartat 55 mg/kg Körpergewicht, für das Zinkchlorid 24 mg/kg Körpergewicht und für das Zinksulfat 45 mg/kg Körpergewicht.

weiblichen C3H Mäusen = assay: Radiation protection: survival of mice after gamma irradiation (cobalt-60) following i.p. pretreatment; assay type: in vivo, Mäuse; conditions: for Ueberlebensrate nach Bestrahlung mit 9 Gy % / Ueberlebensrate nach Bestrahlung mit 9 Gy Anzahl: 10 min before 9 Gy; for Ueberlebensrate nach Bestrahlung mit 9 Gy Anzahl / Ueberlebensrate nach Bestrahlung mit 10 Gy Anzahl / Ueberlebensrate nach Bestrahlung mit 11 Gy Anzahl: surviving/irradiated mice; for Ueberlebensrate nach Bestrahlung mit 11 Gy % / Ueberlebensrate nach Bestrahlung mit 11 Gy Anzahl: 30 min before 11 Gy
From the text: In den nachfolgenden Beispielen wurde die synergistische Wirkung der durch die erfindungsgemässe Verwendung hergestellten pharmazeutischen Präparate mit organische Schwefelverbindungen enthaltenden Präparaten anhand des Strahlenschutzes getestet und es wurde auch die Strahlenschutzwirkung der Zinkionen enthaltenden Präparate mit bisher bekannten Strahlenschutzpräparaten an Mäusen getestet. Die Versuche wurden mit weiblichen C3H Mäusen (GL. Bomholtgard, Ry, Dänemark) durchgeführt, die 20 bis 22 g wogen. Die Mäuse wurden unter Bedingungen gehalten, wo sie so viel Standard-Nagetierfutter (Nafag Pellts) fressen und so viel Leitungswasser trinken können, wie sie wollten. Die Bestrahlung erfolgte mit Gammastrahlen aus einer Kobalt-60 Quelle. Es wurden unterschiedliche Bestrahlungen vorgenommen, und zwar mit 9 Gy, 10 Gy, 11 Gy, 12 Gy, 13 Gy und 14 Gy.
10 Minuten vor der Bestrahlung, 30 Minuten vor der Bestrahlung oder 120 Minuten vor der Bestrahlung wurde ein durch die erfindungsgemässe Verwendung hergestelltes synergistisch wirkendes pharmazeutisches Präparat, bzw. ein entsprechendes, Zinkionen enthaltendes Strahlenschutzpräparat oder ein aus dem Stand der Technik bekanntes Strahlenschutzpräparat zu Vergleichszwecken durch intraperitoneale Injektion verabreicht.
Bei der Gruppe der Mäuse zu Vergleichszwecken, die ohne Verabreichung eines Strahlenschutzpräparates bestrahlt wurden, erfolgte 10 Minuten vor der Bestrahlung die Verabreichung von destilliertem Wasser. Bei diesen unbehandelten Mäusen überlebten nur 50% der Tiere eine Bestrahlung von 8 Gy, d.h. der LD₅₀-Wert betrug 8 Gy.
Nach den Arbeitsweisen der vorangegangenen Beispiele 1 bis 4, wurden weitere Tests mit den genannten weiblichen Mäusen durchgeführt, und zwar unter Verwendung der angeführten Zinksalze. Die bei diesen Tests erzielten Ergebnisse sind in der nachfolgenden Tabelle I zusammengestellt. Für jede der angewandten Bestrahlungsstärken ist in der Rubrik "Anzahl" diejenige Anzahl der Mäuse angeführt, welche die Bestrahlung überlebten, geteilt durch die Gesamtzahl der Mäuse, welche bestrahlt wurden. Ein entsprechender Wert von 1/10 bedeutet also, dass von 10 bestrahlten Mäusen eine überlebt hatte. In der Spalte mit der Bezeichnung "Prozent", ist die Prozent-Ueberlebensrate angeführt. Bei einer überlebenden Maus pro 10 getesteten Mäusen beträgt diese Ueberlebensrate 10 %.
Zu Vergleichszwecken sind in der nachfolgenden Tabelle III die Ueberlebensraten von Mäusen zusammengestellt, die nach dem in Beispiel 5 beschriebenen Verfahren einer Vorbehandlung mit einem bekannten schwefelhaltigen Strahlenschutzmittel unterworfen worden waren. Orientierende Vorversuche hatten gezeigt, dass diese Strahlenschutzmittel bereits ihre Wirkung verloren hatten, wenn sie zwei Stunden vor der Einwirkung der Bestrahlung verabreicht worden waren. Die Bestrahlung wurde, wie aus der Tabelle ersichtlich ist, zwei Minuten nach der Verabreichung, in den meisten Fällen 10 Minuten nach der Verabreichung, aber auch 30 Minuten, bzw. 120 Minuten nach der Verabreichung durchgeführt. Die Werte deuten darauf hin, dass 30 Minuten nach der Verabreichung die Schutzwirkung schon wieder deutlich nachgelassen hat. Für jede Bestrahlungsstärke ist wiederum die Anzahl der Tiere angeführt, die nach 30 Tagen überlebt haben, geteilt durch die Gesamtzahl der Tiere, die behandelt und bestrahlt worden waren.
Anhand dieses Beispiels soll die synergistische Wirkung von Zinkionen und Schwefelverbindungen bezüglich eines Strahlenschutzes erläutert werden. Es wurde wieder in der gleichen Weise gearbeitet, wie in den vorangegangenen Beispielen 1 bis 3, bzw. 5, und es wurde auch die gleiche Art an weiblichen Mäusen getestet. Die Verabreichung der Zinkionen enthaltenden Lösung und der Lösung der Schwefelverbindung erfolgte entweder nacheinander oder gleichzeitig durch intraperitoneale Injektion.
In allen Fällen wurde die Ueberlebensrate 30 Tage nach der Einwirkung der Bestrahlung bestimmt.

[1] = Table II: 10 mg/kg i.p., 30 min before 10 Gy
[2] = Table II: 15 mg/kg i.p., 30 min before 10 Gy
[3] = Table II, Zinksulfat: 15 mg/kg i.p.
[4] = Table II, Zinksulfat: 15 mg/kg i.p., 10 min before 10 Gy
[5] = Table II, Zinksulfat: 30 mg/kg i.p.
[6] = Table II, Zinksulfat: 30 mg/kg i.p., 10 min before 10 Gy
[7] = Table II, Zinksulfat: 22,5 mg/kg i.p.
[8] = Table II, Zinksulfat: 22,5 mg/kg i.p., 10 min before 10 Gy

[Cl-].[Cl-].[Zn+2] [Zinkchlorid]
LD₅₀-Wert (Mäuse): 24 mg/kg Körpergewicht
Ueberlebensrate nach Bestrahlung mit 9 Gy % (weiblichen C3H Mäusen; Table II: 10 mg/kg i.p.): 20%
Ueberlebensrate nach Bestrahlung mit 9 Gy Anzahl (weiblichen C3H Mäusen; Table II: 10 mg/kg i.p.): 2/10
Ueberlebensrate nach Bestrahlung mit 10 Gy % (weiblichen C3H Mäusen; [1]): 15%
Ueberlebensrate nach Bestrahlung mit 10 Gy Anzahl (weiblichen C3H Mäusen; [1]): 3/20
Ueberlebensrate nach Bestrahlung mit 9 Gy % (weiblichen C3H Mäusen; Table II: 15 mg/kg i.p.): 30%
Ueberlebensrate nach Bestrahlung mit 9 Gy Anzahl (weiblichen C3H Mäusen; Table II: 15 mg/kg i.p.): 3/30
Ueberlebensrate nach Bestrahlung mit 10 Gy % (weiblichen C3H Mäusen; [2]): 20%
Ueberlebensrate nach Bestrahlung mit 10 Gy Anzahl (weiblichen C3H Mäusen; [2]): 4/20
Ueberlebensrate nach Bestrahlung mit 9 Gy % (weiblichen C3H Mäusen; Table II: 20 mg/kg i.p.): 10%
Ueberlebensrate nach Bestrahlung mit 9 Gy Anzahl (weiblichen C3H Mäusen; Table II: 20 mg/kg i.p.): 0/10

Zinksulfat
LD₅₀-Wert (Mäuse): 45 mg/kg Körpergewicht
Ueberlebensrate nach Bestrahlung mit 9 Gy % (weiblichen C3H Mäusen; [3]): 0%
Ueberlebensrate nach Bestrahlung mit 9 Gy Anzahl (weiblichen C3H Mäusen; [3]): 1/10
Ueberlebensrate nach Bestrahlung mit 10 Gy % (weiblichen C3H Mäusen; [4]): 22%
Ueberlebensrate nach Bestrahlung mit 10 Gy Anzahl (weiblichen C3H Mäusen; [4]): 2/9
Ueberlebensrate nach Bestrahlung mit 11 Gy % (weiblichen C3H Mäusen; [3]): 0%
Ueberlebensrate nach Bestrahlung mit 11 Gy Anzahl (weiblichen C3H Mäusen; [3]): 0/20
Ueberlebensrate nach Bestrahlung mit 9 Gy Anzahl (weiblichen C3H Mäusen; [5]): 0/10
Ueberlebensrate nach Bestrahlung mit 10 Gy % (weiblichen C3H Mäusen; [6]): 33%
Ueberlebensrate nach Bestrahlung mit 10 Gy Anzahl (weiblichen C3H Mäusen; [6]): 3/9
Ueberlebensrate nach Bestrahlung mit 11 Gy % (weiblichen C3H Mäusen; [5]): 5%
Ueberlebensrate nach Bestrahlung mit 11 Gy Anzahl (weiblichen C3H Mäusen; [5]): 1/20
Ueberlebensrate nach Bestrahlung mit 9 Gy % (weiblichen C3H Mäusen; [7]): 80%
Ueberlebensrate nach Bestrahlung mit 9 Gy Anzahl (weiblichen C3H Mäusen; [7]): 8/10
Ueberlebensrate nach Bestrahlung mit 10 Gy % (weiblichen C3H Mäusen; [8]): 33%
Ueberlebensrate nach Bestrahlung mit 10 Gy Anzahl (weiblichen C3H Mäusen; [8]): 3/9
Ueberlebensrate nach Bestrahlung mit 11 Gy % (weiblichen C3H Mäusen; [7]): 0%
Ueberlebensrate nach Bestrahlung mit 11 Gy Anzahl (weiblichen C3H Mäusen; [7]): 0/20
